Consider 5 compounds from patent publication US6197752A, “Glycomimetics as selectin antagonists and pharmaceuticals having antiinflammatory activity prepared therefrom” (Glycorex AB, priority 1995, dated 2001).

In general, IC50 refers to the concentration needed to halve the response being measured.

Like-named read-outs stand apart in the source and are kept apart here. Bounds are passed on as bounds.

In one assay the test system is selectins. The following applies: cited from earlier work.
A further assay concerns the target T1, P-Selectin (Homo sapiens, UniProt P16109).
T1 sequence (P16109 42-830): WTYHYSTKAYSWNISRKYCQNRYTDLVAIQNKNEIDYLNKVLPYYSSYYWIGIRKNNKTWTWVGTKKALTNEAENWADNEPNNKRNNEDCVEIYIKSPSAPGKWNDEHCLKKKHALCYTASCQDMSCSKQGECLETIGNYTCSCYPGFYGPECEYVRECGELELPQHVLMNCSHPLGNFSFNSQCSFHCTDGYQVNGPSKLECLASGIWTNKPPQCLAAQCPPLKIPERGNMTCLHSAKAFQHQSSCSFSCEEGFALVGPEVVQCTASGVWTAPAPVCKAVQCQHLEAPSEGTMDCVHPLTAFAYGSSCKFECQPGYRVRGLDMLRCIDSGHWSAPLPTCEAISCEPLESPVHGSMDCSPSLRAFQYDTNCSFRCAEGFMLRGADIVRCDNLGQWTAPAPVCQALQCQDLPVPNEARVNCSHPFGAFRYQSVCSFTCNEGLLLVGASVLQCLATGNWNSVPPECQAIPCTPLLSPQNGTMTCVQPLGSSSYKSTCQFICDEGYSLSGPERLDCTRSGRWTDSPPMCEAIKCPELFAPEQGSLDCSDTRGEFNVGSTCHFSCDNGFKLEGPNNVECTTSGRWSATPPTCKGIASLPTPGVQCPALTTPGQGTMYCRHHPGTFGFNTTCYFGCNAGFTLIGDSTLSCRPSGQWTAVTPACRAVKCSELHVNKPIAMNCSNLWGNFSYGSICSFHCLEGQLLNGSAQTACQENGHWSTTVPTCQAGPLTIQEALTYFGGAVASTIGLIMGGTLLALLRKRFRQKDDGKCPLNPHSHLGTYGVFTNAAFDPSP
The following applies: WO 95/04526, WO 94/24145, cited from earlier work.

Another assay has as its system 5-lipoxygenase. The following applies: WO 95/04526; WO 94/24145; cited from earlier work.
The conditions of assay [1]: WO 95/04526; WO 94/24145; cited from earlier work.
Assay [2] deals with leukocyte adhesion on the endothelium. Put plainly: LPS-induced leukocyte adhesion in vivo, intravital microscopy in the mesenterium of the rat. The following applies: SPRD (m). The source says:
In inflammatory processes and other states which activate the cytokines, a critical part is played by the destruction of tissue by means of leukocytes which migrate in or which block the microcirculation. The first phase, which is critical for the subsequent course of the disease, is the activation of leukocytes within the blood stream, especially in the pre- and post-capillary area. […] All subsequent leukocyte effects, i.e. active migration through the vessel wall and subsequent oriented migration in the tissue, are secondary reactions (Harlan, J. M., Leukocyte-endothelial interaction, Blood 65, 513-525,1985). […]
The induced adhesion of leukocytes is quantified by an investigation technique involving intravital microscopy in the mesenterium of the rat (Atherton A. and Born G.V.R., Quantitative investigations of the adhesiveness of circulating polymorphonuclear leukocytes to blood vessel walls. J. Physiol. 222, 447-474,1972; Seiffge, D. Methoden zur Untersuchung der Rezeptor-vermittelten Interaktion zwischen Leukozyten und Endotheizellen im Entzundungsgeschehen [Methods of investigating receptor-mediated interaction between leukocytes and endothelial cells in the case of inflammation] in: Ersatz- und Erganzungsmethoden zu Tierversuchen in der biomedizinischen Forschung, Schoffl, H. et al., (eds.) Springer, 1995 (in press)). […]

Assay [3] concerns P-selectin-dependent lung injuries. The following applies: animal experiments; Mulligan et al. 1993; cited from earlier work.
Assay [4] has as its system myocardial reperfusion injuries. The following applies: animal experiments; Buerke et al. 1994; cited from earlier work.

Take `CC1OC(CC(=O)C2CCCC2C(=O)NC(Cc2ccccc2)C(=O)O)C(O)C(O)C1O` (stereo not shown) [Compound 2]: the IC50 in the assay on selectins (glycopeptide analogs (WO 95/04751), region of up to) was no more than 1000 µM.
Consider `CC1OC(CCCCC2OC(CO)C(O)C(CCC(=O)O)C2O)C(O)C(O)C1O` (stereo not shown) [Compound 3], for which, in the assay on selectins (Wong et al., J. Am. Chem. Soc. 1995), the IC50 was 10000 to 20000 µM.
With `C=C(CO[C@H]1CC[C@]2(C)[C@H]3C(=O)C=C4[C@@H]5C[C@@](C)(C(=O)O)CC[C@]5(C)CC[C@@]4(C)[C@]3(C)CC[C@H]2C1(C)C)C[C@@H]1O[C@@H](C)[C@@H](O)[C@@H](O)[C@@H]1O` [Compound 4a], the “P-selectin inhibition (in words)” value on P-Selectin is on record as “P-selectin inhibition”. At P-Selectin (read-out: IC50 for binding to P-selectin), the IC50 is 750 µM. For the same compound, the “inhibition of 5-lipoxygenase” value in the assay on 5-lipoxygenase is reported as “inhibition of 5-lipoxygenase”. In assay [1], the antimetastatic action result is recorded as “antimetastatic action”.
Regarding `C[C@@H]1O[C@@H](CCCOC(=O)N2CCC(C(=O)O)CC2)[C@@H](O)[C@H](O)[C@@H]1O` [Compound 12c], the “inhibition of leukocyte adhesion” value in assay [2] (3 mg/kg, 1 day i.v.) came out at 58%; in assay [2] (20 mg/kg, 1 day p.o.) it was 29%.
`CC(=O)NC1C(O)CC(OC2C(O)C(CO)OC(OC3C(CO)OC(O)C(NC(C)=O)C3OC3OC(C)C(O)C(O)C3O)C2O)(C(=O)O)OC1C(O)C(O)CO` (stereo not shown) [SLeX]: the “use in P-selectin-dependent lung injuries” value in assay [3] was “successfully used”. Also, the “use in myocardial reperfusion injuries” value in assay [4] was “successfully used”.
